Reference: patent US6486326B2, “iso-CBI and iso-CI analogs of CC-1065 duocarmycins” (The Scripps Research Institute, priority 1997, dated 2002)
“And” between values parts separate entries of the source, which are not always exact repeats. Equal values may be shown once.

Key:
calf thymus DNA = test: Calf thymus DNA alkylation, quantitation of adenine N3 adduct; format: biochemical; details: for conversion to thermally released adenine adduct 66: 4° C., 72 h, ca. 150 bp, then 100° C., 30 min, pH 7.0, four runs
Protocol: This was addressed through a study of the alkylation of calf thymus DNA. Optimized conditions for the alkylation were established for (−)-44 on an analytical scale (100 μg of agent). For this purpose, the long-wavelength UV absorption of the agent and the adduct provided a useful quantitative measure of the adenine adduct, unreacted starting material and any side products (solvolysis or rearrangement), Table 3. Analytical HPLC analysis was used to confirm the identity of the products through correlation of retention times and UV spectral data with authentic materials. The preparative DNA alkylation reaction and subsequent isolation of (+)-66 was carried out under conditions determined to provide complete consumption of the agent in the presence of a large excess of DNA Thus, extraction (EtOAc) of the aqueous buffer solution containing calf thymus DNA following alkylation (4° C., 72 h, 150 bp) afforded no recovered (−)-44, and only a small amount (<5%) of the rearranged product 65. Conducting the reaction at 4° C. in the presence of a large excess of DNA precluded competitive solvolysis. Thermal treatment of the alkylated DNA in aqueous 10 mM sodium phosphate buffer (100° C., 30 min, pH 7.0) followed by EtOAc extraction provided 66 in 90-95% conversion, ≧95% purity (by HPLC). Repeating this thermal treatment provided little or no additional adduct. No trace of a competing guanine adduct could be detected. This high conversion to a single adduct established that 44 participates exclusively in the adenine N3 alkylation reaction under the conditions examined.

w836 DNA (146 bp) = test: DNA alkylation selectivity and efficiency, thermally-induced strand cleavage of w836 DNA; format: biochemical
Protocol: FIG. 6 illustsrates thermally-induced strand cleavage of w836 DNA (146 bp, nucleotide nos. 5189-91): DNA-agent incubation for 24 h ((−)-iso-CBI-TMI) at 25° C., removal of unbound agent and 30 min of thermolysis (100° C.), followed by denaturing 8% PAGE and autoradiography; lane 1, control DNA; lanes 2-5, Sanger G, C, A, and T sequencing reactions; lanes 6-8 (−)-iso-CBI-TMI ([…] to 1×10^−5 M); lanes 9-10, (+)-duocarmycin SA (1×10^−5 to 1×10^−6 M); lanes 11-12, (+)-iso-CBI-TMI (1×10^−2 and 1×10^−3).
DNA Alkylation Selectivity and Efficiency: The DNA alkylation properties of the agents were examined within w794 and w836 duplex DNA for which comparative results are available for related agents. (Boger, D. L., et al., J. Am. Chem. Soc. 1994, 116, 11335; Boger, D. L., et al., J. Am. Chem. Soc. 1994, 116, 6461; and Boger, D. L., et al., J. Am. Chem. Soc. 1995, 117, 11647) The alkylation site identification and the assessment of the relative selectivity among the available sites were obtained by thermally-induced strand cleavage of the singly 5′ end-labeled duplex DNA after exposure to the agents. […]

COc1cc2cc(C(=O)N3CC4CC45C(=O)c4ccccc4C=C35)[nH]c2c(OC)c1OC (single isomer, unassigned; (-)) [(−)-iso-CBI-TMI, 2-[(5,6,7-Trimethoxyindol-2-yl)carbonyl]-1,2,9,9a-tetrahydrocyclopropa[c]benzo[f]indol-8-one]
conversion to thermally released adenine adduct 66 (calf thymus DNA): 95% and 90-95%
conversion to thermally released adenine adduct 66 (calf thymus DNA; listed as (−)-44): 90-95%
consumption of the agent accounted for by adenine N3 addition (calf thymus DNA; in the presence of duplex DNA): 90-100%
DNA alkylation sites / selectivity (w836 DNA (146 bp)): same sites as (+)-duocarmycin SA
